{"source": "patent US20020183384A1", "about": "“Methods of treating nuclear factor-kappa B mediated diseases and disorders” (priority 2001, published 2002)", "data": [{"tested_on": "NF-κB mediated transcription", "assay": "NF-κB driven β-lactamase reporter assay in ECV-304 NF-κB.βlaZ cells (AURORA CCF2 fluorescence)", "format": "cell-based, human", "details": "Homo sapiens, ECV-304, 6 h, 10 μM compound; ECV-304 NF-κB.βlaZ cells stimulated with 10 ng/mL TNF-α or 100 pg/mL IL-1β, 6 hours at 37° C.; inhibition of maximum blue/green ratio; read-out: Percent Inhibition at 10 μM", "how_it_was_run": "(§1)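 ECV-304 cells (clone 1E8) stably carrying a β-lactamase reporter driven by 5 HIV-1 NF-κB sites, plated in M-199 with 2% FBS, compound at 10 μM final. CCF2 read at 395 nm excitation, blue 460 nm/green 530 nm emission ratio; IC50 from dose-response curve.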", "units": {"inhibition at 10 µM": "%"}, "values": [{"smiles": "CC(=O)OC(C(=O)NS(=O)(=O)Oc1c(C(C)C)cccc1C(C)C)c1c(C(C)C)cc(C(C)C)cc1C(C)C", "note": "(stereo not shown) [Example 154, Acetic acid 2-(2,6-diisopropyl-phenoxysulfonylamino)-2-oxo-1-(2,4,6-triisopropyl-phenyl)-ethyl ester]", "inhibition at 10 µM": 77.7}, {"smiles": "CC(C)c1cccc(C(C)C)c1OS(=O)(=O)NC(=O)CC1CCCCC1", "note": "[Example 155, Cyclohexylacetyl-sulfamic acid 2,6-diisopropyl-phenyl ester]", "inhibition at 10 µM": "< 10"}, {"smiles": "COc1ccccc1CC(=O)NS(=O)(=O)Oc1c(C(C)C)cccc1C(C)C", "note": "[Example 156, [(2-Methoxy-phenyl)-acetyl]-sulfamic acid 2,6-diisopropyl-phenyl ester]", "inhibition at 10 µM": "< 10"}, {"smiles": "CC(C)c1cccc(C(C)C)c1OS(=O)(=O)NC(=O)C(=O)c1ccccc1", "note": "[Example 157, (Oxo-phenyl-acetyl)-sulfamic acid 2,6-diisopropyl-phenyl ester]", "inhibition at 10 µM": "< 10"}, {"smiles": "CC(C)c1cccc(C(C)C)c1OS(=O)(=O)NC(=O)Cc1ccccc1C(F)(F)F", "note": "[Example 158, [(2-Trifluoromethyl-phenyl)-acetyl]-sulfamic acid 2,6-diisopropyl-phenyl ester]", "inhibition at 10 µM": 25.9}, {"smiles": "CC(C)c1cccc(C(C)C)c1OS(=O)(=O)NC(=O)C(C)c1ccccc1", "note": "(stereo not shown) [Example 159, (2-Phenyl-propionyl)-sulfamic acid 2,6-diisopropyl-phenyl ester]", "inhibition at 10 µM": 10.1}, {"smiles": "CC(C)c1cccc(C(C)C)c1OS(=O)(=O)NC(=O)C(c1ccccc1)c1ccccc1", "note": "[Example 160, Diphenylacetyl-sulfamic acid 2,6-diisopropyl-phenyl ester]", "inhibition at 10 µM": 34.2}, {"smiles": "CC(C)c1cccc(C(C)C)c1OS(=O)(=O)NC(=O)C(c1ccccc1)C1CCCC1", "note": "(stereo not shown) [Example 161, (Cyclopentyl-phenyl-acetyl)-sulfamic acid 2,6-diisopropyl-phenyl ester]", "inhibition at 10 µM": 51.5}, {"smiles": "CC(C)c1cc(C(C)C)c(C(O)C(=O)NS(=O)(=O)Oc2c(C(C)C)cccc2C(C)C)c(C(C)C)c1", "note": "(stereo not shown) [Example 162, [Hydroxy-(2,4,6-triisopropyl-phenyl)-acetyl]-sulfamic acid 2,6-diisopropyl-phenyl ester]", "inhibition at 10 µM": 75.3}, {"smiles": "CC(C)c1cccc(C(C)C)c1OS(=O)(=O)NC(=O)C(c1ccccc1)(c1ccccc1)c1ccccc1", "note": "[Example 163, Triphenylacetyl-sulfamic acid 2,6-diisopropyl-phenyl ester]", "inhibition at 10 µM": 62.4}, {"smiles": "CC(C)c1cccc(C(C)C)c1OS(=O)(=O)NC(=O)OC1[C@@H](C(C)C)CCC[C@H]1C(C)C", "note": "(stereo partly drawn) [Example 164, Carbamic acid, [[2,6-bis(1-methylethyl)phenoxy]sulfonyl]-, (2R,6S)-2,6-bis(1-methylethyl)cyclohexyl ester]", "inhibition at 10 µM": 55.2}, {"smiles": "CC(C)c1cccc(C(C)C)c1OS(=O)(=O)NC(=O)C1CCc2ccccc2C1", "note": "(stereo not shown) [Example 165, (1,2,3,4-Tetrahydro-naphthalene-2-carbonyl)-sulfamic acid 2,6-diisopropyl-phenyl ester]", "inhibition at 10 µM": 28.7}, {"smiles": "CCC(C)C(C(=O)NS(=O)(=O)Oc1c(C(C)C)cccc1C(C)C)c1ccccc1", "note": "(stereo not shown) [Example 167, (3-Methyl-2-phenyl-pentanoyl)-sulfamic acid 2,6-diisopropyl-phenyl ester]", "inhibition at 10 µM": 40}, {"smiles": "CC(C)c1cccc(C(C)C)c1OS(=O)(=O)NC(=O)C1(c2ccccc2)CCCC1", "note": "[Example 168, (1-Phenyl-cyclopentanecarbonyl)-sulfamic acid 2,6-diisopropyl-phenyl ester]", "inhibition at 10 µM": 39.1}, {"smiles": "CCC(C(=O)NS(=O)(=O)Oc1c(C(C)C)cccc1C(C)C)c1ccccc1", "note": "(stereo not shown) [Example 169, (2-Phenyl-butyryl)-sulfamic acid 2,6-diisopropyl-phenyl ester]", "inhibition at 10 µM": 21.3}, {"smiles": "CC(C)c1cccc(C(C)C)c1OS(=O)(=O)NC(=O)C(c1ccccc1)C1CCCCC1", "note": "(stereo not shown) [Example 170, (Cyclohexyl-phenyl-acetyl)-sulfamic acid 2,6-diisopropyl-phenyl ester]", "inhibition at 10 µM": 78.6}, {"smiles": "CC(C)c1cccc(C(C)C)c1OS(=O)(=O)NC(=O)C(C)(c1ccccc1)c1ccccc1", "note": "[Example 171, (2,2-Diphenyl-propionyl)-sulfamic acid 2,6-diisopropyl-phenyl ester]", "inhibition at 10 µM": 62.2}, {"smiles": "CC(C)c1cccc(C(C)C)c1OS(=O)(=O)NC(=O)C(c1ccc(Cl)cc1)c1ccc(Cl)cc1", "note": "[Example 172, [Bis-(4-chloro-phenyl)-acetyl]-sulfamic acid 2,6-diisopropyl-phenyl ester]", "inhibition at 10 µM": 86.9}, {"smiles": "CC(C)c1cccc(C(C)C)c1OS(=O)(=O)NC(=O)C1c2ccccc2Oc2ccccc21", "note": "[Example 173, (9H-Xanthene-9-carbonyl)-sulfamic acid 2,6-diisopropyl-phenyl ester]", "inhibition at 10 µM": 36.9}, {"smiles": "CC(C)c1cccc(C(C)C)c1OS(=O)(=O)NC(=O)C1c2ccccc2-c2ccccc21", "note": "[Example 174, (9H-Fluorene-9-carbonyl)-sulfamic acid 2,6-diisopropyl-phenyl ester]", "inhibition at 10 µM": 32.2}, {"smiles": "CC(C)c1cccc(C(C)C)c1OS(=O)(=O)NC(=O)C(Br)c1ccccc1", "note": "(stereo not shown) [Example 175, (Bromo-phenyl-acetyl)-sulfamic acid 2,6-diisopropyl-phenyl ester]", "inhibition at 10 µM": "< 10"}, {"smiles": "CC(C)c1cccc(C(C)C)c1OS(=O)(=O)NC(=O)CCc1ccccc1", "note": "[Example 176, (3-Phenyl-propionyl)-sulfamic acid 2,6-diisopropyl-phenyl ester]", "inhibition at 10 µM": "< 10"}, {"smiles": "CC(C)c1cc(C(C)C)c(NC(=O)NS(=O)(=O)Oc2c(C(C)C)cccc2C(C)C)c(C(C)C)c1", "note": "[Example 177, Sulfamic acid, [[[2,4,6-tris(1-methylethyl)phenyl]amino]carbonyl]-, 2,6-bis(1-methylethyl)phenyl ester]", "inhibition at 10 µM": 63.6}, {"smiles": "CC(C)c1cc(C(C)C)c(CC(=O)NS(=O)(=O)Oc2c(C(C)C)cc(O)cc2C(C)C)c(C(C)C)c1", "note": "[Example 180, [(2,4,6-Triisopropyl-phenyl)-acetyl]-sulfamic acid 4-hydroxy-2,6-diisopropyl-phenyl ester]", "inhibition at 10 µM": 92}, {"smiles": "CC(C)c1cc(C(C)C)c(CC(=O)N(C)S(=O)(=O)Oc2c(C(C)C)cccc2C(C)C)c(C(C)C)c1", "note": "[Example 181, Methyl-[(2,4,6-triisopropyl-phenyl)-acetyl]-sulfamic acid 2,6-diisopropyl-phenyl ester]", "inhibition at 10 µM": "< 10"}, {"smiles": "CC(C)c1cc(C(C)C)c(CC(=O)NS(=O)(=O)Oc2c(C(C)C)cc([N+](=O)[O-])cc2C(C)C)c(C(C)C)c1", "note": "[Example 182, [(2,4,6-Triisopropyl-phenyl)-acetyl]-sulfamic acid 2,6-diisopropyl-4-nitro-phenyl ester]", "inhibition at 10 µM": 69.8}, {"smiles": "CC(C)c1cc(C(C)C)c(CC(=O)NS(=O)(=O)Oc2c(C(C)C)cc(F)cc2C(C)C)c(C(C)C)c1", "note": "[Example 185, [(2,4,6-Triisopropyl-phenyl)-acetyl]-sulfamic acid 4-fluoro-2,6-diisopropyl-phenyl ester]", "inhibition at 10 µM": 73.9}, {"smiles": "COc1cccc(OC)c1OS(=O)(=O)NC(=O)Cc1c(C(C)C)cc(C(C)C)cc1C(C)C", "note": "[Example 186, [(2,4,6-Triisopropyl-phenyl)-acetyl]-sulfamic acid 2,6-dimethoxy-phenyl ester]", "inhibition at 10 µM": 18.8}, {"smiles": "CC(C)c1cc(C(C)C)c(CC(=O)NS(=O)(=O)Oc2c(C(C)C)cc(N)cc2C(C)C)c(C(C)C)c1", "note": "[Example 187, [(2,4,6-Triisopropyl-phenyl)-acetyl]-sulfamic acid 4-amino-2,6-diisopropyl-phenyl ester]", "inhibition at 10 µM": 57.8}, {"smiles": "CCOC(=O)CCCCCc1cc(C(C)C)c(OS(=O)(=O)NC(=O)Cc2c(C(C)C)cc(C(C)C)cc2C(C)C)c(C(C)C)c1", "note": "[Example 188, 6-(3,5-Diisopropyl-4-{[(2,4,6-triisopropyl-phenyl)-acetyl]sulfamoyloxy}-phenyl)-hexanoic acid ethyl ester]", "inhibition at 10 µM": 50.8}, {"smiles": "COc1cc(OC)c(OS(=O)(=O)NC(=O)Cc2c(C(C)C)cc(C(C)C)cc2C(C)C)c(OC)c1", "note": "[Example 189, [(2,4,6-Triisopropyl-phenyl)-acetyl]-sulfamic acid 2,4,6-trimethoxy-phenyl ester]", "inhibition at 10 µM": 15.1}, {"smiles": "CC(C)c1cc(C(C)C)c(CC(=O)NS(=O)(=O)Oc2c(C(C)C)cc(C(C)(C)C)cc2C(C)C)c(C(C)C)c1", "note": "[Example 190, [(2,4,6-Triisopropyl-phenyl)-acetyl]-sulfamic acid 4-tert-butyl-2,6-diisopropyl-phenyl ester]", "inhibition at 10 µM": 27.6}]}, {"tested_on": "NF-κB mediated transcription", "assay": "NF-κB driven β-lactamase reporter assay in ECV-304 NF-κB.βlaZ cells (AURORA CCF2 fluorescence)", "format": "cell-based, human", "details": "Homo sapiens; 10 μM compound; ECV-304 NF-κB.βlaZ cells stimulated with 10 ng/mL TNF-α or 100 pg/mL IL-1β, 6 hours at 37° C.; inhibition of maximum blue/green ratio; read-out: Percent Inhibition at 10 μM", "how_it_was_run": "as §1", "units": {"inhibition at 10 µM": "%"}, "values": [{"smiles": "Cc1cc(C)c(C)c(OC(=O)NS(=O)(=O)Oc2c(C(C)C)cccc2C(C)C)c1C", "note": "[Example 166, Carbamic acid, [[2,6-bis(1-methylethyl)phenoxy]sulfonyl]-, 2,3,5,6-tetramethylphenyl ester]", "inhibition at 10 µM": "< 10"}, {"smiles": "CC(C)c1cccc(C(C)C)c1OS(=O)(=O)NC(=O)Oc1cccnc1", "note": "[Example 178, Carbamic acid, [[2,6-bis(1-methylethyl)phenoxy]sulfonyl]-, 3-pyridinyl ester]", "inhibition at 10 µM": "< 10"}, {"smiles": "Cc1cccc(C)c1OC(=O)NS(=O)(=O)Oc1c(C(C)C)cccc1C(C)C", "note": "[Example 179, Carbamic acid, [[2,6-bis(1-methylethyl)phenoxy]sulfonyl]-, 2,6-dimethylphenyl ester]", "inhibition at 10 µM": "< 10"}, {"smiles": "CC(=O)c1cc(C(C)C)c(OC(=O)NS(=O)(=O)Oc2c(C(C)C)cccc2C(C)C)c(C(C)C)c1", "note": "[Example 183, Carbamic acid, [[2,6-bis(1-methylethyl)phenoxy]sulfonyl]-, 4-acetyl-2,6-bis(1-methylethyl)phenyl ester]", "inhibition at 10 µM": "< 10"}, {"smiles": "CC(C)c1cc(F)cc(C(C)C)c1OC(=O)NS(=O)(=O)Oc1c(C(C)C)cccc1C(C)C", "note": "[Example 184, Carbamic acid, [[2,6-bis(1-methylethyl)phenoxy]sulfonyl]-, 4-fluoro-2,6-bis(1-methylethyl)phenyl ester]", "inhibition at 10 µM": 21.2}]}]}
